Source: ChEMBL document CHEMBL1201862, “PubChem BioAssay data set” (2004)
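1) Cells in 96-well plates. 2) Compound, 48 h, 5 concentrations. 3) Linear interpolation between surrounding doses. 4) Unreached endpoint = highest concentration. Here, GI50 denotes the concentration required for 50% inhibition of growth.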 The source made the active and inactive calls. No stated cut-off is given here; in the data, active = GI50 up to about 1.1 µM and inactive = higher.

How the values were obtained:
Assay in all cases: DTP human tumour cell line panel, 48 h
786-0 = tested on: 786-0
A498 = tested on: A498
A549 = tested on: A549
ACHN = tested on: ACHN
BT-549 = tested on: BT-549
CAKI-1 = tested on: CAKI-1
CCRF-CEM = tested on: CCRF-CEM
COLO 205 = tested on: COLO 205
DU-145 = tested on: DU-145
EKVX = tested on: EKVX
HCC 2998 = tested on: HCC 2998
HCT-116 = tested on: HCT-116
HCT-15 = tested on: HCT-15
HL-60 = tested on: HL-60
HOP-62 = tested on: HOP-62
HOP-92 = tested on: HOP-92
HT-29 = tested on: HT-29
Hs-578T = tested on: Hs-578T
IGROV-1 = tested on: IGROV-1
K562 = tested on: K562
LOX IMVI = tested on: LOX IMVI
M14 = tested on: M14
MCF7 = tested on: MCF7
MDA-MB-231 = tested on: MDA-MB-231
MDA-MB-435 = tested on: MDA-MB-435
MDA-N = tested on: MDA-N
MOLT-4 = tested on: MOLT-4
Malme-3M = tested on: Malme-3M
NCI-H226 = tested on: NCI-H226
NCI-H23 = tested on: NCI-H23
NCI-H460 = tested on: NCI-H460
NCI-H522 = tested on: NCI-H522
NCI/ADR-RES = tested on: NCI/ADR-RES
OVCAR-3 = tested on: OVCAR-3
OVCAR-4 = tested on: OVCAR-4
OVCAR-8 = tested on: OVCAR-8
PC-3 = tested on: PC-3
RPMI-8226 = tested on: RPMI-8226
RXF 393 = tested on: RXF 393
SF-268 = tested on: SF-268
SF-295 = tested on: SF-295
SF-539 = tested on: SF-539
SK-MEL-28 = tested on: SK-MEL-28
SK-MEL-5 = tested on: SK-MEL-5
SK-OV-3 = tested on: SK-OV-3
SN12C = tested on: SN12C
SNB-19 = tested on: SNB-19
SNB-75 = tested on: SNB-75
SR = tested on: SR
SW-620 = tested on: SW-620
T47D = tested on: T47D
TK-10 = tested on: TK-10
U-251 = tested on: U-251
UACC-62 = tested on: UACC-62
UO-31 = tested on: UO-31
KM12 = tested on: KM12
OVCAR-5 = tested on: OVCAR-5
SK-MEL-2 = tested on: SK-MEL-2
UACC-257 = tested on: UACC-257

Measured: GI50

CC(=O)OCc1cn(S(=O)(=O)c2ccc(C)cc2)cn1
inactive: 786-0 > 100 µM | A498 > 100 µM | A549 84.5 µM | ACHN > 100 µM | BT-549 > 100 µM | CAKI-1 > 100 µM | CCRF-CEM 26.7 µM | COLO 205 73.6 µM | DU-145 > 100 µM | EKVX > 100 µM | HCC 2998 > 100 µM | HCT-116 24 µM | HL-60 > 100 µM | HOP-62 > 100 µM | HOP-92 > 100 µM | HT-29 20.7 µM | Hs-578T 36.5 µM | IGROV-1 > 100 µM | K562 > 100 µM | LOX IMVI 47.5 µM | M14 25.3 µM | MCF7 25.2 µM | MDA-MB-231 > 100 µM | MDA-MB-435 19.6 µM | MDA-N 12.5 µM | MOLT-4 46.5 µM | Malme-3M > 100 µM | NCI-H226 > 100 µM | NCI-H23 > 100 µM | NCI-H460 30.1 µM | NCI-H522 64 µM | NCI/ADR-RES > 100 µM | OVCAR-3 24.2 µM | OVCAR-4 > 100 µM | OVCAR-8 > 100 µM | PC-3 > 100 µM | RPMI-8226 > 100 µM | RXF 393 > 100 µM | SF-268 37.2 µM | SF-295 > 100 µM | SF-539 16.4 µM | SK-MEL-28 > 100 µM | SK-MEL-5 46.9 µM | SK-OV-3 > 100 µM | SN12C > 100 µM | SNB-19 > 100 µM | SNB-75 > 100 µM | SR 9.51 µM | SW-620 43 µM | T47D > 100 µM | TK-10 > 100 µM | U-251 > 100 µM | UACC-62 75.2 µM | UO-31 > 100 µM
18.5 µM: HCT-15

O=[N+]([O-])C1=Cc2c(O)ccc(O)c2C2OC=CC12 (stereo unspecified)
18.5 µM: HCT-15
inactive: 786-0 17.9 µM | A498 15.7 µM | A549 21 µM | ACHN 14.8 µM | BT-549 14.6 µM | CAKI-1 13.1 µM | CCRF-CEM 8.89 µM | COLO 205 27 µM | DU-145 26.4 µM | EKVX 19.5 µM | HCC 2998 27.4 µM | HCT-116 15.9 µM | HL-60 8.59 µM | HOP-62 18.3 µM | HOP-92 22.3 µM | HT-29 19.6 µM | Hs-578T 29.2 µM | IGROV-1 19.4 µM | K562 9.44 µM | KM12 16.4 µM | LOX IMVI 15.7 µM | M14 18 µM | MCF7 13.6 µM | MDA-MB-231 18.5 µM | MDA-MB-435 2.4 µM | MDA-N 5.97 µM | MOLT-4 3.6 µM | NCI-H226 30.7 µM | NCI-H23 15.5 µM | NCI-H460 19.7 µM | NCI-H522 3.83 µM | NCI/ADR-RES 19.2 µM | OVCAR-3 7.94 µM | OVCAR-4 16.4 µM | OVCAR-5 23.5 µM | OVCAR-8 21.4 µM | PC-3 14.7 µM | RPMI-8226 34.1 µM | RXF 393 15.2 µM | SF-268 19.8 µM | SF-295 16.3 µM | SF-539 22.2 µM | SK-MEL-28 44.8 µM | SK-MEL-2 18.7 µM | SK-MEL-5 12.4 µM | SK-OV-3 > 60.4 µM | SN12C 18.2 µM | SNB-19 23.9 µM | SNB-75 21.6 µM | SR 23 µM | SW-620 30 µM | T47D 17.4 µM | TK-10 16.6 µM | U-251 16.1 µM | UACC-257 15 µM | UACC-62 6.81 µM | UO-31 14.6 µM

CN(O)C(=O)/C=C/c1ccc(OCc2cccc(Cl)c2)cc1
12.9 µM: HCT-15
inactive: 786-0 18.7 µM | A498 17 µM | A549 21.2 µM | ACHN 14.5 µM | BT-549 21.8 µM | CAKI-1 26.4 µM | CCRF-CEM 8.26 µM | COLO 205 28.9 µM | DU-145 20.8 µM | EKVX 26.5 µM | HCC 2998 23.6 µM | HCT-116 16.8 µM | HL-60 18 µM | HOP-62 24.4 µM | HOP-92 24.3 µM | HT-29 18 µM | Hs-578T 61.7 µM | IGROV-1 17.3 µM | K562 36.1 µM | KM12 17.7 µM | LOX IMVI 11.2 µM | M14 28 µM | MCF7 48.6 µM | MDA-MB-231 43.9 µM | MDA-MB-435 32.2 µM | MDA-N 43.1 µM | MOLT-4 8.77 µM | NCI-H226 21.4 µM | NCI-H23 16.3 µM | NCI-H460 16.5 µM | NCI-H522 25.7 µM | NCI/ADR-RES 19.7 µM | OVCAR-3 38.6 µM | OVCAR-4 19.6 µM | OVCAR-5 39.7 µM | OVCAR-8 16.3 µM | PC-3 24.5 µM | RPMI-8226 27.5 µM | RXF 393 30.7 µM | SF-268 23.9 µM | SF-295 22.8 µM | SF-539 29.2 µM | SK-MEL-28 38.5 µM | SK-MEL-2 23.8 µM | SK-MEL-5 24.2 µM | SK-OV-3 25.6 µM | SN12C 20.1 µM | SNB-19 42.5 µM | SNB-75 26.4 µM | SR 7.06 µM | SW-620 26.9 µM | T47D 20.1 µM | TK-10 48.6 µM | U-251 22 µM | UACC-257 51.8 µM | UACC-62 15 µM | UO-31 10.1 µM
